In one assay the test system is Wheat (cultivar: Apogee). Briefly: Test Example 10: reduction of high-temperature stress by spraying treatment of wheat. It is filed as in vivo. The conditions noted are these: spray solution 1 ppm, high-temperature stress 36° C./32° C. 7 days, 90 days after the stress treatment. On the procedure:
Evaluation Test for Reduction of High-Temperature Stress by Spraying Treatment of Wheat
Five wheat seeds were sown in the culture soil (AISAI) in each plastic pot and cultivated for 28 days in an artificial weather control room under the conditions of a temperature of 18° C. in daytime/15° C. in night, and an illuminance of 7,000 lux. Before the stress test, 3 individuals per pot were removed.
To 0.5 mg of the present compound 1 were added 120 mg of a mixture (weight ratio 1:1) of white carbon and ammonium polyoxyethylene alkyl ether sulfate and 300 μl of water. The mixture was finely ground by a wet grinding method to obtain a flowable formulation of the present compound 1. This flowable formulation was diluted with 500 ml of water. The mixture was diluted with RINO (manufactured by NIHON NOHYAKU CO., LTD) as a spreading agent to 5,000-fold dilution to obtain a spray solution containing 1 ppm of the present compound 1. […]
After the high-temperature stress treatment, the plants were cultivated in an artificial weather control room under the conditions of a temperature of 18° C. in daytime/15° C. in night, and a illuminance of 7,000 lux. Then, 90 days after the high-temperature stress treatment, the number and the weight of seeds in ears of the tested plants in 7 or 8 pots were measured, and the average values of the number and the weight of seeds per one ear were calculated. […]

Assay [1] concerns Rice (cultivar: Nipponbare). Briefly: Test Example 1: promotion of root growth in hydroponics of rice. It is filed as in vivo. The following applies: 1 ppm, 3 days germination + 3 days cultivation, average of 4 or 5 individuals. The method, then:
Evaluation Test for Promotion of Root Growth in Hydroponics of Rice Rice (cultivar: Nipponbare) A 1/10,000 volume of each DMSO solution containing each of the present compounds 1 to 4 at 10,000 ppm was added to a Hoagland solution for hydroponics (Hoagland and Amon, California Agricultural Experiment Station 1950 Circular 347 pp. 34) at ¼ concentration to obtain a solution for hydroponics containing each of the present compounds 1 to 4 at 1 ppm. These solutions were used in the treated-group. In a non-treated group, a solution for hydroponics obtained by adding a Hoagland solution for hydroponics at ¼ concentration to a 1/10,000 volume of DMSO was used. The rice seeds were immersed in an aqueous solution of 1% sodium hypochlorite for 10 minutes, followed by 70% ethanol solution to sterilize their surfaces. After that, the seeds were washed with distilled water. The sterilized seeds were immersed in each solution for hydroponics containing the test compound at 1 ppm, and incubated at a temperature of 28° C. for 3 days under dark conditions to stimulate the germination of the seeds. Then, 30 ml of each solution for hydroponics containing the test compound at 1 ppm was dispensed into a plastic tube (20 mm in diameter×113 mm in height) covered with a cardboard on the lateral surface for blocking a light. A float made of a styrene board and a vinyl mesh was placed on the water surface of each solution for hydroponics, and the rice seeds obtained after the stimulation of germination were placed on the float. The seeds were cultivated for 3 days under the conditions of an illuminance of 4,000 lux at the top of the tube, a temperature of 26° C., a humidity of 50%, and a day length of 16 hours. The root length of the rice seedlings obtained after the cultivation was measured by using WinRHIZO system (manufactured by REGENT INSTRUMENTS). The average value of the root length in the treated group was calculated from the measurement values of 4 or 5 individuals. As a result, the root length in the treated group, wherein the plants were treated with the present compound 1, 2, 3 or 4 (at a concentration of 1 ppm in each case), was much longer than that in the non-treated group.

The values below come from patent publication US9119396B2, “Method for promoting plant growth” (SUMITOMO CHEMICAL COMPANY, LIMITED, priority 2011, dated 2015).

Consider `COC(=O)c1cc2cc(C(F)(F)F)ccc2s1` [compound 1], for which, in the assay on Wheat (cultivar: Apogee), the “number of seeds per one ear vs non-treated group” value is reported as “much larger” and the “weight of seeds per one ear vs non-treated group” value was “much larger”. The “root length of the rice seedlings vs non-treated group” value in assay [1] was “much longer”.
